Patent US20250339569A1, “CARBONIC ANHYDRASE IX LIGANDS” (priority 2021, published 2025)
Starred links: 1 amine or outer side, 2 acyl side, 3 side chain; linkers in the order of their positions; H or OH if unused. Positions of bridges follow the written chain, without caps; N, C: chain ends. Non-standard residues stand in square brackets, D forms with d. Residues, ends and D or L forms follow the SMILES beside them. mXylylene = c1cc(C[*:1])cc(C[*:2])c1; Pen = CC(C)(S)[C@H](N)C(=O)O; Ac6c = NC1(C(=O)O)CCCCC1; Orn = NCCC[C@H](N)C(=O)O; Dab = NCC[C@H](N)C(=O)O; Thp = NC1(C(=O)O)CCOCC1

The compounds below were run against T1, CAIX-expressing human HT-29 colorectal cancer cells (Homo sapiens, UniProt Q16790) (assay: FACS binding assay (IC50 determination, competition with tracer 3BP-2776 or 3BP-4149)). Settings: FACS binding assay, HT-29 cells, competition with tracer 3BP-2776 (10 nM, biotin-labeled), 4° C., 1 hour; read-out: pIC50 category (activity) (converted).
T1 construct: CAIX-expressing human HT-29 colorectal cancer cells; host or cells: HT-29 human colorectal cancer cells
How it was run: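 HT-29 cells in FACS buffer (PBS, 1% FCS) at 500.000 cells/ml were exposed to compounds competing with a labelled tracer, with biotinylated compounds detected by 1 μg/mL APC-streptavidin for 30 min on ice. APC/Cy5 median fluorescence was read by flow cytometry and IC50 derived by 4PL fit.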
`CC(=O)N[C@H](C(=O)N[C@@H](Cc1ccc(O)cc1)C(=O)N[C@H]1CSCc2cccc(c2)CSC[C@@H](C(N)=O)NC(=O)[C@H](CO)NC(=O)[C@H](Cc2c[nH]c3ccccc23)NC(=O)[C@@H]2CCC(=O)NCCCC[C@H](NC(=O)[C@H]3CCCN3C(=O)[C@H](CCC(=O)O)NC1=O)C(=O)N[C@@H](Cc1c[nH]c3ccccc13)C(=O)NC1(CCCCC1)C(=O)N2)C(C)C` [3BP-3961] (Ac-VYCE[dP]KW[Ac6c]EWSC-NH2; linker 3-12 via mXylylene; lactam 6-9) gave an IC50 of 10 to 79.4 nM.
In the case of `CC(=O)N[C@H](C(=O)N[C@@H](Cc1ccc(O)cc1)C(=O)N[C@H]1CSCc2cccc(c2)CSC[C@@H](C(N)=O)NC(=O)[C@H](CO)NC(=O)[C@H](Cc2c[nH]c3ccccc23)NC(=O)[C@@H]2CCC(=O)NCCCC[C@H](NC(=O)[C@H]3CCCN3C(=O)[C@H](CCC(=O)O)NC1=O)C(=O)N[C@@H](Cc1c[nH]c3ccccc13)C(=O)NC1(CCOCC1)C(=O)N2)C(C)C` [3BP-3962] (Ac-VYCE[dP]KW[Thp]EWSC-NH2; linker 3-12 via mXylylene; lactam 6-9), the IC50 was 100 to 794 nM.
In the case of `CC(=O)N[C@H](C(=O)N[C@@H](Cc1ccc(O)cc1)C(=O)N[C@H]1CSCc2cccc(c2)CSC(C)(C)[C@@H](C(N)=O)NC(=O)[C@H](CO)NC(=O)[C@H](Cc2c[nH]c3ccccc23)NC(=O)[C@@H]2CCC(=O)NCCCC[C@H](NC(=O)[C@H]3CCCN3C(=O)[C@H](CCC(=O)O)NC1=O)C(=O)N[C@@H](Cc1c[nH]c3ccccc13)C(=O)N[C@@H](CC(C)C)C(=O)N2)C(C)C` [3BP-3963] (Ac-VYCE[dP]KWLEWS[Pen]-NH2; linker 3-12 via mXylylene; lactam 6-9), the IC50 was less than 10 nM.
`CC(=O)N[C@H](C(=O)N[C@@H](Cc1ccc(O)cc1)C(=O)N[C@H]1CSCc2cccc(c2)CSC[C@@H](C(N)=O)NC(=O)[C@H](CO)NC(=O)[C@H](Cc2c[nH]c3ccccc23)NC(=O)[C@@H]2CC(=O)NCCC[C@H](NC(=O)[C@H]3CCCN3C(=O)[C@H](CCC(=O)O)NC1=O)C(=O)N[C@@H](Cc1c[nH]c3ccccc13)C(=O)N[C@@H](CC(C)C)C(=O)N2)C(C)C` [3BP-4005] (Ac-VYCE[dP][Orn]WLDWSC-NH2; linker 3-12 via mXylylene; lactam 6-9) gave an IC50 of less than 10 nM.
For `CC(=O)N[C@H](C(=O)N[C@@H](Cc1ccc(O)cc1)C(=O)N[C@H]1CSCc2cccc(c2)CSC[C@@H](C(N)=O)NC(=O)[C@H](CO)NC(=O)[C@H](Cc2c[nH]c3ccccc23)NC(=O)[C@H]2CC(=O)NCCCC[C@H](NC(=O)[C@H]3CCCN3C(=O)[C@H](CCC(=O)O)NC1=O)C(=O)N[C@@H](Cc1c[nH]c3ccccc13)C(=O)N[C@@H](CC(C)C)C(=O)N2)C(C)C` [3BP-4043] (Ac-VYCE[dP]KWL[dD]WSC-NH2; linker 3-12 via mXylylene; lactam 6-9), the IC50 was 100 to 794 nM.
`CC(=O)N[C@H](C(=O)N[C@@H](Cc1ccc(O)cc1)C(=O)N[C@H]1CSCc2cccc(c2)CSC[C@@H](C(N)=O)NC(=O)[C@H](CO)NC(=O)[C@H](Cc2c[nH]c3ccccc23)NC(=O)[C@@H]2CC(=O)NCCCC[C@H](NC(=O)[C@H]3CCCN3C(=O)[C@H](CCC(=O)O)NC1=O)C(=O)N[C@@H](Cc1c[nH]c3ccccc13)C(=O)N[C@@H](CC(C)C)C(=O)N2)C(C)C` [3BP-4046] (Ac-VYCE[dP]KWLDWSC-NH2; linker 3-12 via mXylylene; lactam 6-9) was tested, and the IC50 was 10 to 79.4 nM.
`CC(=O)N[C@H](C(=O)N[C@@H](Cc1ccc(O)cc1)C(=O)N[C@H]1CSCc2cccc(c2)CSC[C@@H](C(N)=O)NC(=O)[C@H](CO)NC(=O)[C@H](Cc2c[nH]c3ccccc23)NC(=O)[C@@H]2CC(=O)NCC[C@H](NC(=O)[C@H]3CCCN3C(=O)[C@H](CCC(=O)O)NC1=O)C(=O)N[C@@H](Cc1c[nH]c3ccccc13)C(=O)N[C@@H](CC(C)C)C(=O)N2)C(C)C` [3BP-4050] (Ac-VYCE[dP][Dab]WLDWSC-NH2; linker 3-12 via mXylylene; lactam 6-9) was tested, and the IC50 was 100 to 794 nM.
